Data reported in the CheMixHub drug solubility set.

Experiment: xn = mol fraction of the nth substance listed, in the solute-free solvent

CCCCOc1ccc(C(=O)CCN2CCCCC2)cc1.Cl + CO + C1CCOC1
solubility (g/100 g solution)
Settings | 278.15 K | 283.15 K | 288.15 K | 293.15 K | 298.15 K | 303.15 K | 308.15 K | 313.15 K | 318.15 K | 323.15 K
x2 = 0.1 | 3.9 | 4.4 | 4.97 | 5.64 | 6.4 | 7.23 | 8.14 | 9.22 | 10.4 | 11.6
x2 = 0.2 | 7.86 | 8.84 | 9.92 | 11.2 | 12.4 | 13.9 | 15.5 | 17.2 | 19.1 | 21.1
x2 = 0.3 | 12 | 13.4 | 14.9 | 16.6 | 18.4 | 20.5 | 22.6 | 24.9 | 27.4 | 30
x2 = 0.4 | 16.3 | 18.1 | 20.1 | 22.3 | 24.6 | 27 | 29.6 | 32.5 | 35.4 | 38.5
x2 = 0.5 | 20.8 | 23.1 | 25.4 | 28 | 30.6 | 33.5 | 36.5 | 39.6 | 42.8 | 46.2
x2 = 0.6 | 25.5 | 28.2 | 30.8 | 33.7 | 36.7 | 39.8 | 43 | 46.4 | 49.9 | 53.3
x2 = 0.7 | 30.6 | 33.5 | 36.5 | 39.6 | 42.9 | 46.2 | 49.6 | 53 | 56.5 | 59.9
x2 = 0.8 | 35.7 | 38.9 | 42 | 45.4 | 48.7 | 52.1 | 55.5 | 59 | 62.5 | 65.8
x2 = 0.9 | 41.3 | 44.6 | 48 | 51.3 | 54.7 | 58.1 | 61.5 | 64.9 | 68 | 71.3

O=C(O)c1cc([N+](=O)[O-])ccc1O + CO + O
solubility (g/100 g solution)
Settings | 278.15 K | 283.15 K | 288.15 K | 293.15 K | 298.15 K | 303.15 K | 308.15 K | 313.15 K | 318.15 K | 323.15 K
x2 = 0.05881 | 0.117 | 0.173 | 0.235 | 0.287 | 0.359 | 0.429 | 0.505 | 0.603 | 0.726 | 0.877
x2 = 0.1233 | 0.41 | 0.537 | 0.709 | 0.886 | 1.08 | 1.29 | 1.53 | 1.79 | 2.1 | 2.45
x2 = 0.1942 | 1.03 | 1.3 | 1.61 | 2 | 2.42 | 2.83 | 3.35 | 3.9 | 4.5 | 5.22
x2 = 0.2727 | 2.03 | 2.54 | 3.13 | 3.79 | 4.57 | 5.28 | 6.22 | 7.27 | 8.39 | 9.67
x2 = 0.3599 | 4.15 | 4.74 | 5.63 | 6.73 | 7.94 | 9.14 | 10.4 | 11.7 | 13.1 | 14.6
x2 = 0.4576 | 7.29 | 8.14 | 9.16 | 10.4 | 11.9 | 13.4 | 15.2 | 17.1 | 19.2 | 21.5
x2 = 0.5675 | 9.53 | 10.8 | 12.5 | 14.2 | 15.9 | 17.6 | 19.5 | 21.5 | 23.6 | 25.8
x2 = 0.6923 | 11.6 | 12.9 | 14.7 | 17 | 19.2 | 21.1 | 23.1 | 25.2 | 27.2 | 29.4
x2 = 0.835 | 13.8 | 15.1 | 16.8 | 18.7 | 21.1 | 23.3 | 25.3 | 27.6 | 29.8 | 32.4

O=C(O)C1CSCN1 (stereo not given) + O + CC#N
solubility (g/100 g solution)
Settings | x2 = 0.1 | x2 = 0.2 | x2 = 0.3 | x2 = 0.4 | x2 = 0.5 | x2 = 0.6 | x2 = 0.7 | x2 = 0.8 | x2 = 0.9
283.15 K | 0.0141 | 0.0241 | 0.0323 | 0.084 | 0.183 | 0.365 | 0.573 | 0.965 | 1.4
293.15 K | 0.0189 | 0.0303 | 0.0491 | 0.106 | 0.242 | 0.433 | 0.729 | 1.24 | 1.89
303.15 K | 0.0244 | 0.0416 | 0.0643 | 0.129 | 0.312 | 0.533 | 0.901 | 1.58 | 2.4
313.15 K | 0.0292 | 0.0548 | 0.0787 | 0.159 | 0.392 | 0.679 | 1.17 | 2.04 | 3.06
323.15 K | 0.0343 | 0.0734 | 0.0978 | 0.192 | 0.492 | 0.805 | 1.52 | 2.62 | 3.94

CC(=O)NC(CCC(N)=O)C(=O)O (stereo not given) + O + CCO
solubility (g/100 g solution)
Settings | 293.15 K | 298.15 K | 303.15 K | 308.15 K | 313.15 K | 318.15 K
x2 = 0.2647 | 0.629 | 0.869 | 0.998 | 1.29 | 1.49 | 1.75
x2 = 0.4475 | 1.45 | 1.76 | 2.23 | 2.56 | 2.78 | 3.17
x2 = 0.7641 | 3.01 | 3.62 | 4.93 | 6.04 | 7.27 | 8.61
x2 = 0.8293 | 2.93 | 3.69 | 4.49 | 5.32 | 6.47 | 7.52
x2 = 0.9284 | 3.11 | 3.48 | 4.31 | 5.04 | 6.17 | 7.23

CC(=O)NC(CCC(N)=O)C(=O)O (stereo not given) + O + CO
solubility (g/100 g solution)
Settings | 293.15 K | 298.15 K | 303.15 K | 308.15 K | 313.15 K | 318.15 K
x2 = 0.1998 | 1.22 | 1.48 | 1.76 | 2.06 | 2.62 | 3.27
x2 = 0.4906 | 2.54 | 2.73 | 3.45 | 4.16 | 5.01 | 5.92
x2 = 0.6921 | 3.1 | 3.54 | 4.77 | 5.99 | 7.07 | 8.56
x2 = 0.7712 | 3.1 | 3.37 | 4.17 | 4.97 | 6.05 | 7.41
x2 = 0.8999 | 3.14 | 3.34 | 4.37 | 5.12 | 5.77 | 7.05
